Assay results published in patent US4463007A, “Triazoloquinazolinones, and compositions and methods for treating allergic disorders with them” (BASF Aktiengesellschaft, priority 1981, dated 1984).

Test system: PCA in rats
Assay: Passive cutaneous anaphylaxis (PCA) in rats, anti-allergic action, oral administration
Assay type: in vivo, rat
Details: for ED50: Rattus norvegicus, dose which reduces diameter of color patch by 50% relative to non-medicated controls, read-out: Inhibition of PCA in rats, ED 50%; for ED50 / R.A. (relative activity) / times more active than the comparative compound Pirquinozol: oral; for R.A. (relative activity): Pirquinozol = 1.00
Experimental: The anti-allergic action was tested on rats, using the passive cutaneous anaphylaxis (PCA) model.
Narcotized male rats (100 to 140 g) are sensitized by intradermal injection (into the shaved dorsal skin) of 0.1 ml of an ovalbumin antiserum. After a sensitization period of about 48 hours, the treatment (intraperitoneal or oral administration) is carried out with various dosages (10 animals/dose)of the test substances. 15-20 minutes after treatment, an antigen/Evans blue mixture (10 mg/kg of ovalbumin in 2% strength Evans blue solution) is injected intravenously into the test animals. 30 minutes later, the animals are sacrificed, the dorsal skin is removed and the diameter of the circular blue coloration is measured on the inner surface. The size of the color patches of untreated control animals can be standardized. Anti-allergic substances reduce the diameter of the color patch by an amount dependent on the dose. The ED 50% is quoted as the dose which reduces the diameter of the color patch by 50% relative to that of non-medicated control animals. In addition to the anti-allergic action, the acute toxicity was determined for intraperitoneal administration, using groups of 2 NMRI mice, each weighing 20-26 g, and for oral administration, using groups of 2 Sprague-Dawley rats, each weighing 120-150 g. The LD 50 was determined on groups of 10 NMRI mice, each weighing 20-26 g, after intraperitoneal administration. The post-observation period was 14 days.

| Compound | ED50 [mg/kg] | activity in oral doses (in words) (oral doses of up to 100 mg/kg, PCA rats) | R.A. (relative activity) (PCA rats) | times more active than the comparative compound Pirquinozol (PCA rats) [times] |
| --- | --- | --- | --- | --- |
| O=C(O)c1cc(=O)c2c(OCC(O)COc3cccc4oc(C(=O)O)cc(=O)c34)cccc2o1 [Cromolyne, reference compound] | > 100 | inactive | – | – |
| CCOC(=O)c1nc2c3ccccc3n(C)c(=O)n2n1 [Example 13, Ethyl 6-methyl-1,2,4-triazolo[1,5-c]quinazolin-5-one-2-carboxylate] | 0.518 | – | 2.29 | – |
| CCOC(=O)c1nc2c3ccccc3n(CC)c(=O)n2n1 [Example 14, Ethyl 6-ethyl-1,2,4-triazolo[1,5-c]quinazolin-5-one-2-carboxylate] | 0.707 | – | 1.68 | – |
| CCOC(=O)c1nc2c3cc(C)ccc3n(CC)c(=O)n2n1 [Example 17, Ethyl 6-ethyl-9-methyl-1,2,4-triazolo[1,5-c]quinazolin-5-one-2-carboxylate] | 0.271 | – | 4.39 | 4.4 |
| CCOC(=O)c1nc2c3cc(Cl)ccc3n(C)c(=O)n2n1 [Example 20, Ethyl 9-chloro-6-methyl-1,2,4-triazolo[1,5-c]quinazolin-5-one-2-carboxylate] | 0.723 | – | 1.64 | – |
| CCOC(=O)c1nc2c3cc(C)ccc3n(C)c(=O)n2n1 [Example 25, Ethyl 6,9-dimethyl-1,2,4-triazolo[1,5-c]quinazolin-5-one-2-carboxylate] | 0.617 | – | 1.92 | – |
| CCOC(=O)c1nc2c3cc(C)c(C)cc3n(C)c(=O)n2n1 [Example 27, Ethyl 6,8,9-trimethyl-1,2,4-triazolo[1,5-c]quinazolin-5-one-2-carboxylate] | 1 | – | 1.19 | 1.2 |
| CCOC(=O)c1nc2c3cc(C)c(C)cc3n(CC)c(=O)n2n1 [Example 28, Ethyl 8,9-dimethyl-6-ethyl-1,2,4-triazolo[1,5-c]quinazolin-5-one-2-carboxylate] | 0.876 | – | 1.36 | – |
| O=c1[nH]c2ccccc2c2cc(CO)nn12 [Pirquinozol, reference compound] | 1.19 | – | 1.00 | – |
